Where two headings read alike, the source gives them in different places.
How the values were obtained:
Type in all cases: cell-based
[1] = tested on: NCI-H358 cells (KRAS G12C mutation); assay: Proliferation inhibition measured by CTG (CellTiter Glo), NCI-H358; conditions: Homo sapiens, 120 hours incubation
From the text: (§1) NCI-H358 is a human non-small cell lung cancer cell line with KRAS G12C mutation; PANC-1 and AsPC-1 are pancreatic cancer cell lines with KRAS G12D mutation; AGS is a gastric cancer cell line with KRAS G12D mutation; A427 is a lung cancer cell line with KRAS G12D mutation; THP-1 is a leukemia cell line with NRAS G12D mutation; Hs 578T is a breast cancer cell line with HRAS G12D mutation; SW480 is a colon cancer cell lines with KRAS G12V mutation; A375 is a wild type malignant melanoma cell line. The proliferation inhibitory effect of the compounds on various mutations was evaluated by determining the proliferation inhibitory activity of the compounds on these cell lines.
(§2) The assay was conducted on either 384-well plates or 96-well plates. The procedures are as follows:
(§3) The cell suspensions were added to 384- or 96-well plates (384-well plate: 40 μL; 96-well plate: […]) except for peripheral wells. The plates were incubated in a carbon dioxide incubator overnight. Prepared compounds (10 concentration gradients by serial 3-fold dilution) were added to the wells. The cell plates were incubated in a carbon dioxide incubator for 120 hours. CellTiter Glo reagent (384 well plate: 25 μL; 96 well plate: 100 μL) was added to the 384- or 96-well plates. The plates were shaken for 10 minutes away from light, and incubated for 10 minutes. The plates were read by EnVision system. Inhibition curves were plotted using XLFit and IC50 values were calculated. “IC50>10 μM” is denoted by “*”, “10 μM≥IC50>1 μM” is denoted by “**”, “1 μM≥IC50>100 nM” is denoted by “***”, and “IC50≤100 nM” is denoted by “****”.

[2] = tested on: AGS gastric cancer cell line (KRAS G12D mutation); assay: Proliferation inhibition measured by CTG (CellTiter Glo), AGS; conditions: CTG, 120 hours incubation
From the text: as §1, §2, §3

[3] = tested on: A375 wild type malignant melanoma cell line; assay: Proliferation inhibition measured by CTG (CellTiter Glo), A375; conditions: Homo sapiens, A-375, CTG, 120 hours incubation
From the text: as §1, §2, §3

[4] = tested on: SW480 colon cancer cell line (KRAS G12V mutation); assay: Proliferation inhibition measured by CTG (CellTiter Glo), SW480; conditions: Homo sapiens
From the text: as §1, §2, §3

[5] = Table 2, CTG, read-out: IC50 H358 (G12C)
[6] = Table 2, read-out: IC50 AGS (G12D)
[7] = Table 2, read-out: IC50 A375 (wide type)
[8] = Table 1, CTG, class symbol, read-out: IC50 (H358)
[9] = Table 1, class symbol, read-out: IC50 (AGS)
[10] = Table 1, class symbol, read-out: IC50 (A375)
[11] = Table 3, CTG, class symbol, read-out: IC50 (H358)
[12] = Table 3, class symbol, read-out: IC50 (AGS)
[13] = Table 3, class symbol, read-out: IC50 (A375)
[14] = Table 3, 120 hours incubation, class symbol, read-out: IC50 (SW480)

IC50 [1, 11] | IC50 [2, 12] | IC50 [3, 13] | IC50 [4, 14] | SMILES | further results
100 to 1000 nM | 100 to 1000 nM |  |  | CN1CCC[C@H]1COc1nc2c(c(N3CCn4cncc4C3)n1)CCN(c1cc(O)cc3ccccc13)C2 [Compound 43] | 
≤ 100 nM | ≤ 100 nM | ≤ 100 nM | ≤ 100 nM | C[C@@H]1Cn2cncc2CN1c1nc(OC[C@@H]2CCCN2C)nc2c1CCN(c1cccc3cccc(Cl)c13)C2 [Compound 44] | IC50 [1, 5]: 33 nM; IC50 [2, 6]: 24 nM; IC50 [3, 7]: 36 nM; IC50 ([4]; Table 2, 120 hours incubation, read-out: IC50 SW480 (G12V)): 25 nM
≤ 100 nM | ≤ 100 nM | 100 to 1000 nM | ≤ 100 nM | C[C@@H]1Cn2cncc2CN1c1nc(O[C@@H]2CCN(C)C2)nc2c1CCN(c1cccc3cccc(Cl)c13)C2 [Compound 57] | 
≤ 100 nM | ≤ 100 nM | 100 to 1000 nM | ≤ 100 nM | C[C@@H]1Cn2cncc2CN1c1nc(OC[C@H]2CCCN2C)nc2c1CCN(c1cccc3cccc(Cl)c13)C2 [Compound 58] | 
100 to 1000 nM | 100 to 1000 nM | 1000 to 10000 nM | 100 to 1000 nM | C[C@@H]1Cn2cncc2CN1c1nc(O[C@@H]2CCCN(C)C2)nc2c1CCN(c1cccc3cccc(Cl)c13)C2 [Compound 60] | 
≤ 100 nM | ≤ 100 nM | 100 to 1000 nM | ≤ 100 nM | CCN1CCC[C@H]1COc1nc2c(c(N3Cc4cncn4C[C@H]3C)n1)CCN(c1cccc3cccc(Cl)c13)C2 [Compound 63] | 
≤ 100 nM | ≤ 100 nM | ≤ 100 nM | ≤ 100 nM | C[C@@H]1Cn2cncc2CN1c1nc(OC[C@@H]2CCCCN2C)nc2c1CCN(c1cccc3cccc(Cl)c13)C2 [Compound 64] | 
≤ 100 nM | ≤ 100 nM | 100 to 1000 nM | 100 to 1000 nM | C[C@@H]1Cn2cncc2CN1c1nc(OC[C@@H]2CCCN2C)nc2c1CCN(c1cc(O)cc3ccccc13)C2 [Compound 66] | 
≤ 100 nM | ≤ 100 nM | 100 to 1000 nM | ≤ 100 nM | C[C@@H]1Cn2cncc2CN1c1nc(OC[C@@H]2CCCN2C)nc2c1CCN(c1cccc3ccccc13)C2 [Compound 68] | 
100 to 1000 nM | 100 to 1000 nM | 1000 to 10000 nM | 100 to 1000 nM | C[C@@H]1Cn2cncc2CN1c1nc(O[C@H]2CCN(C)C2)nc2c1CCN(c1cccc3cccc(Cl)c13)C2 [Compound 71] | 
100 to 1000 nM | 100 to 1000 nM | 1000 to 10000 nM | 100 to 1000 nM | C[C@@H]1Cn2cncc2CN1c1nc(OC2CN(C)C2)nc2c1CCN(c1cccc3cccc(Cl)c13)C2 [Compound 74] | 
≤ 100 nM | ≤ 100 nM | ≤ 100 nM | ≤ 100 nM | [2H]C([2H])([2H])N1CCC[C@H]1COc1nc2c(c(N3Cc4cncn4C[C@H]3C)n1)CCN(c1cccc3cccc(Cl)c13)C2 [Compound 77] | 
≤ 100 nM | ≤ 100 nM | ≤ 100 nM | ≤ 100 nM | C[C@@H]1Cn2cnc(F)c2CN1c1nc(OC[C@@H]2CCCN2C)nc2c1CCN(c1cc(O)cc3cccc(Cl)c13)C2 [Compound 78] | 
 | ≤ 100 nM | ≤ 100 nM | ≤ 100 nM | C[C@@H]1Cn2cncc2CN1c1nc(OC[C@@H]2CCCN2C)nc2c1CCN(c1cc(OC(=O)C(C)(C)C)cc3cccc(Cl)c13)C2 [Compound 79] | 
≤ 100 nM | ≤ 100 nM | 100 to 1000 nM | ≤ 100 nM | C[C@@H]1Cn2cncc2CN1c1nc(OC[C@@H]2CCCN2C)nc2c1CCN(c1cccc3cccnc13)C2 [Compound 83] | 
1000 to 10000 nM | 100 to 1000 nM | 1000 to 10000 nM | 100 to 1000 nM | C[C@@H]1Cn2cncc2CN1c1nc(OC[C@@H]2CCCN2C)nc2c1CCN(c1cccc3c1CCCC3)C2 [Compound 84] | 
100 to 1000 nM | 100 to 1000 nM | 1000 to 10000 nM | 100 to 1000 nM | COc1cc(N2CCc3c(nc(OC[C@@H]4CCCN4C)nc3N3Cc4cncn4C[C@H]3C)C2)c2c(Cl)cccc2c1 [Compound 85] | 
≤ 100 nM | ≤ 100 nM | ≤ 100 nM | ≤ 100 nM | C[C@@H]1Cn2cnc(Cl)c2CN1c1nc(OCC2CCCN2C)nc2c1CCN(c1cccc3cccc(Cl)c13)C2 (stereo partly drawn) [Compound 86] | 

The next lines start with the compound.

SMILES | IC50 [1, 11] | IC50 [2, 12] | IC50 [3, 13] | IC50 [4, 14] | further results
C=Cc1ncc2n1CCN(c1nc(OC[C@@H]3CCCN3C)nc3c1CCN(c1cccc4cccc(Cl)c14)C3)C2 [Comparative compound 2′, reference compound] |  |  |  |  | IC50 [1, 5]: 1230 nM; IC50 [2, 6]: 1480 nM; IC50 [3, 7]: 1610 nM
C=Cc1ncc2n1CCN(c1nc(OC[C@@H]3CCCN3C)nc3c1CCN(c1cccc4ccccc14)C3)C2 [Comparative compound 3′, reference compound] |  |  |  |  | IC50 [1, 5]: 1040 nM; IC50 [2, 6]: 1180 nM; IC50 [3, 7]: 1500 nM
CN1CCC[C@H]1COc1nc2c(c(N3CCn4cnc(C5CC5)c4C3)n1)CCN(c1cccc3cccc(Cl)c13)C2 [Compound 40] |  |  |  |  | IC50 [1, 8]: 100 to 1000 nM; IC50 [2, 9]: 100 to 1000 nM; IC50 [3, 10]: 100 to 1000 nM
Cc1ncn2c1CN(c1nc(OC[C@@H]3CCCN3C)nc3c1CCN(c1cccc4cccc(Cl)c14)C3)CC2 [Compound 41] |  |  |  |  | IC50 [1, 8]: 100 to 1000 nM; IC50 [2, 9]: ≤ 100 nM; IC50 [3, 10]: 100 to 1000 nM
CN1CCC[C@H]1COc1nc2c(c(N3CCn4c(cnc4Br)C3)n1)CCN(c1cccc3cccc(Cl)c13)C2 [Compound 49] | 100 to 1000 nM | 100 to 1000 nM | 1000 to 10000 nM | 1000 to 10000 nM | 
CN1CCC[C@H]1COc1nc2c(c(N3CCn4c(cnc4-c4ccccc4)C3)n1)CCN(c1cccc3cccc(Cl)c13)C2 [Compound 50] | 1000 to 10000 nM | 1000 to 10000 nM | 1000 to 10000 nM | 1000 to 10000 nM | 
CN1CCC[C@H]1COc1nc2c(c(N3CCn4cnc(C(N)=O)c4C3)n1)CCN(c1cccc3cccc(Cl)c13)C2 [Compound 52] | 100 to 1000 nM | 100 to 1000 nM | 1000 to 10000 nM | 1000 to 10000 nM | 
CN1CCC[C@H]1COc1nc2c(c(N3CCn4c(cnc4C4CC4)C3)n1)CCN(c1cccc3cccc(Cl)c13)C2 [Compound 53] | 1000 to 10000 nM | 1000 to 10000 nM | 1000 to 10000 nM | 1000 to 10000 nM | 
C[C@@H]1Cn2cncc2CN1c1nc(OC[C@@H]2CCCN2C)nc2c1CCN(c1cc(OC(=O)N(C)C)cc3cccc(Cl)c13)C2 [Compound 82] | 100 to 1000 nM | ≤ 100 nM | 100 to 1000 nM | 100 to 1000 nM | 
C[C@@H]1Cn2cnc(F)c2CN1c1nc(OC[C@@H]2CCCN2C)nc2cc(-c3cccc4cccc(Cl)c34)ccc12 [Compound 88] | ≤ 100 nM | ≤ 100 nM | 100 to 1000 nM | ≤ 100 nM | 
C[C@@H]1Cn2cnc(F)c2CN1c1nc(OC[C@@H]2CCCN2C)nc2cc(-c3cc(O)cc4cccc(Cl)c34)ccc12 [Compound 91] | ≤ 100 nM | ≤ 100 nM | ≤ 100 nM | ≤ 100 nM | 
C[C@@H]1Cn2cnc(F)c2CN1c1nc(OC[C@@H]2CCCN2C)nc2cc(-c3cc(OC(=O)C(C)(C)C)cc4cccc(Cl)c34)ccc12 [Compound 92] | ≤ 100 nM | ≤ 100 nM | ≤ 100 nM | ≤ 100 nM | 
C[C@@H]1Cn2cnc(F)c2CN1c1nc(OC[C@@H]2CCCN2C)nc2c1CCN(c1cc(OC(=O)C(C)(C)C)cc3cccc(Cl)c13)C2 [Compound 96] |  | ≤ 100 nM |  | ≤ 100 nM | 
C[C@@H]1Cn2cnc(F)c2CN1c1nc(OC[C@@H]2CCCN2C)nc2c1CCN(c1cc(OC(=O)N(C)C)cc3cccc(Cl)c13)C2 [Compound 97] | ≤ 100 nM | ≤ 100 nM | 100 to 1000 nM | ≤ 100 nM | 
